According to patent US7897627B2, “Heteroaryl derivatives as orexin receptor antagonists” (Hoffmann-La Roche Inc., priority 2007, dated 2011):

target: T1, human orexin-2 (hOX2) receptor (Homo sapiens, UniProt O43614); test: Intracellular Ca2+ mobilization assay (FLIPR), CHO(dHFr-) cells expressing hOX2, orexin-A as agonist; assay type: cell-based; conditions: antagonist Kb=IC50/(1+[A]/EC50); orexin-A at EC80; CHO(dHFr-)-OX2R cells; antagonist applied 25 min before agonist
T1 construct: expressed in transfected cells
T1 sequence (O43614 1-444): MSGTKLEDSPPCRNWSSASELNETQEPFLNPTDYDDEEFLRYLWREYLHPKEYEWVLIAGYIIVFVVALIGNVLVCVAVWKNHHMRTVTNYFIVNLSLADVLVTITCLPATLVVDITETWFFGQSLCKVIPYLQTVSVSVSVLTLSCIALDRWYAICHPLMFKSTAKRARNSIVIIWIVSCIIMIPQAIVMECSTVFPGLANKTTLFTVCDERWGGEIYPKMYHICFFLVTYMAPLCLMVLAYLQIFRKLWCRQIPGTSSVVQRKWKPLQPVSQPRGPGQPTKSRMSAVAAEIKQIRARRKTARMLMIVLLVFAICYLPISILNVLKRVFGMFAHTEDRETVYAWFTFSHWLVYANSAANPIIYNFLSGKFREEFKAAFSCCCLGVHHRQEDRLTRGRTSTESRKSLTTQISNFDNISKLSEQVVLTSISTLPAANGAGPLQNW
Description: Intracellular Ca^2+ Mobilization Assay
The Chinese Hamster Ovary (dHFr-) mutant cell line stably expressing human orexin-1 (hOX1) or human orexin-2 (hOX2) receptors were maintained in Dulbecco's Modified Eagle Medium (1×) with GlutaMax™1, 4500 mg/L D-Glucose and Sodium Pyruvate (Catalog No. 31966-021, Invitrogen, Carlsbad, Calif.), 5% dialyzed fetal calf serum (Catalog No. 26400-044), 100 μg/ml penicillin and 100 μg/ml streptomycin. The cells were seeded at 5×10^4 cells/well in the poly-D-lysine treated, 96-well, black/clear-bottomed plates (Catalog No. BD356640, BD Biosciences, Palo Alto, Calif.). 24 h later, the cells were loaded for 1 h at 37° C. with 4 μM Flou-4 acetoxymethyl ester (Catalog No. F-14202, Molecular Probes, Eugene, Oreg.) in FLIPR buffer (1×HBSS, 20 mM HEPES, 2.5 mM Probenecid). Hanks' Balanced Salt Solution (HBSS) (10×) (catalog No. 14065-049) and HEPES (1M) (catalog No. 15630-056) were purchased from Invitrogen, Carlsbad, Calif. Probenecid (250 mM) (catalog No. P8761) was from Sigma, Buchs, Switzerland. The cells were washed five times with FLIPR buffer to remove excess dye and intracellular calcium mobilization, [Ca^2−]i were measured using a Fluorometric Imaging Plate Reader (FLIPR-96, Molecular Devices, Menlo Park, Calif.) as described previously (Malherbe et al., Mol. Pharmacol., 64, 823-832, 2003). Orexin A (catalog No. 1455, Toris Cookson Ltd, Bristol, UK) was used as agonist. Orexin A ([…] stock solution in DMSO) was diluted in FLIPR buffer+0.1% BSA. The EC50 and EC80 values of orexin-A were measured daily from standard agonist concentration-response curves in CHO(dHFr-)-OX1R and -OX2R cell lines. All compounds were dissolved in 100% DMSO. Inhibition curves were determined by addition of 11 concentrations (0.0001-10 μM) of inhibitory compounds and using EC80 value of orexin-A as agonist (a concentration which gave 80% of max agonist response, determined daily). The antagonists were applied 25 min (incubation at 37° C.) before the application of the agonist. Responses were measured as peak increase in fluorescence minus basal, normalized to the maximal stimulatory effect induced by EC80 value of orexin-A or orexin-B. Inhibition curves were fitted according to the Hill equation: y=100/(1+(x/IC50)^nH), where nH=slope factor using Excel-fit 4 software (Microsoft).
Kb values were calculated according to the following equation Kb=IC50/(1+[A]/EC50) where A is the concentration of agonist added which is very close to agonist EC80 value, and IC50 and EC50 values were derived from the antagonist inhibition and orexin-A or B agonist curves, respectively.

Point of comparison: `COc1cccc(OC)c1C(=O)N1CCC(Nc2nc3ccc(Cl)cc3s2)C1` (stereo not shown) [Example 7, [3-(6-Chloro-benzothiazol-2-ylamino)-pyrrolidin-1-yl]-(2,6-dimethoxy-phenyl)-methanone], Kb 0.0228 µM. Against it:
- COc1cccc(OC)c1C(=O)N1CC[C@@H](Nc2nc3cccc(Cl)c3o2)C1 [Example 97, [(R)-3-(7-Chloro-benzooxazol-2-ylamino)-pyrrolidin-1-yl]-(2,6-dimethoxy-phenyl)-methanone] — 3.6-fold lower, 0.0063 µM
- CCc1ccccc1C(=O)N1CC[C@@H](Nc2nc3ccc(Cl)cc3o2)C1 [Example 47, [(R)-3-(6-Chloro-benzooxazol-2-ylamino)-pyrrolidin-1-yl]-(2-ethyl-phenyl)-methanone] — 1.7-fold higher, 0.0377 µM
- O=C(c1ccccc1OC(F)(F)F)N1CC[C@@H](Nc2nc3ccc(F)cc3s2)C1 [Example 113, [(R)-3-(6-Fluoro-benzothiazol-2-ylamino)-pyrrolidin-1-yl]-(2-trifluoromethoxy-phenyl)-methanone] — within 1.5-fold, 0.0217 µM
- Cc1noc(-c2ccccc2C(=O)N2CC[C@@H](Nc3nc4ccc(Cl)cc4o3)C2)n1 [Example 69, [(R)-3-(6-Chloro-benzooxazol-2-ylamino)-pyrrolidin-1-yl]-[2-(3-methyl-[1,2,4]oxadiazol-5-yl)-phenyl]-methanone] — within 1.5-fold, 0.0155 µM
- O=C(c1ccccc1OC(F)(F)C(F)F)N1CC[C@@H](Nc2nc3ccc(Cl)cc3o2)C1 [Example 82, [(R)-3-(6-Chloro-benzooxazol-2-ylamino)-pyrrolidin-1-yl]-[2-(1,1,2,2-tetrafluoro-ethoxy)-phenyl]-methanone] — 5.6-fold lower, 0.0041 µM
- COc1cccc(OC)c1C(=O)N1CC[C@@H](Nc2nc3c(C)cccc3o2)C1 [Example 106, (2,6-Dimethoxy-phenyl)-[(R)-3-(4-methyl-benzooxazol-2-ylamino)-pyrrolidin-1-yl]-methanone] — 1.8-fold lower, 0.0129 µM
- O=C(c1ccccc1OC(F)(F)C(F)F)N1CC[C@@H](Nc2nc3ccc(F)cc3o2)C1 [Example 158, [(R)-3-(6-Fluoro-benzooxazol-2-ylamino)-pyrrolidin-1-yl]-[2-(1,1,2,2-tetrafluoro-ethoxy)-phenyl]-methanone] — 5.8-fold lower, 0.0039 µM
- O=C(c1ccccc1C(F)(F)F)N1CC[C@@H](Nc2cnc3ccccc3n2)C1 [Example 182, [(R)-3-(Quinoxalin-2-ylamino)-pyrrolidin-1-yl]-(2-trifluoromethyl-phenyl)-methanone] — within 1.5-fold, 0.027 µM
- COc1cccc(OC)c1C(=O)N1CC[C@@H](Nc2cnc3cc(F)c(F)cc3n2)C1 [Example 92, [(R)-3-(6,7-Difluoro-quinoxalin-2-ylamino)-pyrrolidin-1-yl]-(2,6-dimethoxy-phenyl)-methanone] — 7.9-fold lower, 0.0029 µM
- Cc1nc(C(=O)N2CC[C@@H](Nc3nc4ccc(F)cc4s3)C2)c(-c2ccccc2)s1 [Example 120, [(R)-3-(6-Fluoro-benzothiazol-2-ylamino)-pyrrolidin-1-yl]-(2-methyl-5-phenyl-thiazol-4-yl)-methanone] — within 1.5-fold, 0.0188 µM
- Cc1ccc(C(F)(F)F)c(C(=O)N2CC[C@@H](Nc3nc4ccc(F)c(F)c4o3)C2)c1 [Example 150, [(R)-3-(6,7-Difluoro-benzooxazol-2-ylamino)-pyrrolidin-1-yl]-(5-methyl-2-trifluoromethyl-phenyl)-methanone] — 1.7-fold lower, 0.0136 µM
- Cc1nc(C(=O)N2CC[C@@H](Nc3cnc4cc(F)c(F)cc4n3)C2)c(-c2ccccc2)s1 [Example 172, [(R)-3-(6,7-Difluoro-quinoxalin-2-ylamino)-pyrrolidin-1-yl]-(2-methyl-5-phenyl-thiazol-4-yl)-methanone] — 7.1-fold lower, 0.0032 µM
- O=C(c1ccccc1-c1ncn[nH]1)N1CC[C@@H](Nc2nc3ccc(Cl)cc3o2)C1 [Example 62, [(R)-3-(6-Chloro-benzooxazol-2-ylamino)-pyrrolidin-1-yl]-[2-(2H-[1,2,4]triazol-3-yl)-phenyl]-methanone] — 1.6-fold lower, 0.014 µM
- COc1cccc(OC)c1C(=O)N1CC[C@@H](Nc2nc3cccc(F)c3s2)C1 [Example 100, (2,6-Dimethoxy-phenyl)-[(R)-3-(7-fluoro-benzothiazol-2-ylamino)-pyrrolidin-1-yl]-methanone] — 2.3-fold lower, 0.01 µM
- Cc1ccc(C(F)(F)F)c(C(=O)N2CC[C@@H](Nc3cnc4cc(F)ccc4n3)C2)c1 [Example 207] — 5-fold lower, 0.0046 µM
- COc1cccc(OC)c1C(=O)N1CCC(Nc2nc3ccc(Cl)cc3o2)C1 (stereo not shown) [Example 1, [3-(6-Chloro-benzooxazol-2-ylamino)-pyrrolidin-1-yl]-(2,6-dimethoxy-phenyl)-methanone] — within 1.5-fold, 0.0279 µM
- COc1cccc(OC)c1C(=O)N1CC[C@@H](Nc2nc3c(F)cccc3s2)C1 [Example 94, (2,6-Dimethoxy-phenyl)-[(R)-3-(4-fluoro-benzothiazol-2-ylamino)-pyrrolidin-1-yl]-methanone] — 2.5-fold lower, 0.0091 µM
- Cc1ccc(Cl)c(C(=O)N2CC[C@@H](Nc3nc4ccc(F)cc4s3)C2)c1 [Example 118, (2-Chloro-5-methyl-phenyl)-[(R)-3-(6-fluoro-benzothiazol-2-ylamino)-pyrrolidin-1-yl]-methanone] — 1.7-fold higher, 0.039 µM
- O=C(c1ccccc1OC(F)(F)C(F)F)N1CC[C@@H](Nc2nc3ccc(F)c(F)c3o2)C1 [Example 149, [(R)-3-(6,7-Difluoro-benzooxazol-2-ylamino)-pyrrolidin-1-yl]-[2-(1,1,2,2-tetrafluoro-ethoxy)-phenyl]-methanone] — 3.2-fold lower, 0.0072 µM
- Cc1cccc(Cl)c1C(=O)N1CC[C@@H](Nc2nc3ccc(Cl)cc3o2)C1 [Example 35, [(R)-3-(6-Chloro-benzooxazol-2-ylamino)-pyrrolidin-1-yl]-(2-chloro-6-methyl-phenyl)-methanone] — 2-fold higher, 0.045 µM
- O=C(c1ccccc1-c1cccnc1)N1CC[C@@H](Nc2nc3ccc(Cl)cc3o2)C1 [Example 65, [(R)-3-(6-Chloro-benzooxazol-2-ylamino)-pyrrolidin-1-yl]-(2-pyridin-3-yl-phenyl)-methanone] — within 1.5-fold, 0.0272 µM
- Cc1nc(-c2ccccc2)c(C(=O)N2CC[C@@H](Nc3nc4ccc(Cl)cc4o3)C2)s1 [Example 78, [(R)-3-(6-Chloro-benzooxazol-2-ylamino)-pyrrolidin-1-yl]-(2-methyl-4-phenyl-thiazol-5-yl)-methanone] — 1.6-fold lower, 0.0145 µM
- Cc1onc(-c2ccccc2)c1C(=O)N1CC[C@@H](Nc2nc3ccc(Cl)cc3o2)C1 [Example 67, [(R)-3-(6-Chloro-benzooxazol-2-ylamino)-pyrrolidin-1-yl]-(5-methyl-3-phenyl-isoxazol-4-yl)-methanone] — 4.5-fold lower, 0.0051 µM
- O=C(c1ccccc1OC(F)(F)C(F)F)N1CC[C@@H](Nc2nc3c(F)cccc3s2)C1 [Example 123, [(R)-3-(4-Fluoro-benzothiazol-2-ylamino)-pyrrolidin-1-yl]-[2-(1,1,2,2-tetrafluoro-ethoxy)-phenyl]-methanone] — 7.1-fold lower, 0.0032 µM
- O=C(c1ccccc1OC(F)(F)F)N1CC[C@@H](Nc2nc3ccc(F)c(F)c3o2)C1 [Example 148, [(R)-3-(6,7-Difluoro-benzooxazol-2-ylamino)-pyrrolidin-1-yl]-(2-trifluoromethoxy-phenyl)-methanone] — 1.7-fold higher, 0.0386 µM
- O=C(c1ccccc1OC(F)(F)C(F)F)N1CC[C@@H](Nc2nc3ccc(F)cc3s2)C1 [Example 114, [(R)-3-(6-Fluoro-benzothiazol-2-ylamino)-pyrrolidin-1-yl]-[2-(1,1,2,2-tetrafluoro-ethoxy)-phenyl]-methanone] — 11-fold lower, 0.002 µM
- Cc1noc(-c2ccccc2C(=O)N2CC[C@@H](Nc3nc4ccc(F)cc4s3)C2)n1 [Example 117, [(R)-3-(6-Fluoro-benzothiazol-2-ylamino)-pyrrolidin-1-yl]-[2-(3-methyl-[1,2,4]oxadiazol-5-yl)-phenyl]-methanone] — within 1.5-fold, 0.0197 µM
